{"source": "patent US10168342B2", "about": "“Lipid probes and uses thereof” (THE SCRIPPS RESEARCH INSTITUTE, priority 2015, dated 2019)", "key": {"[1]": {"target": "T1, A-DA lipid probe targets in Neuro2a cells (Mus musculus, UniProt P22437)", "T1 construct": "endogenous in cells; host or cells: Neuro2a", "T1 sequence (P22437 27-602)": "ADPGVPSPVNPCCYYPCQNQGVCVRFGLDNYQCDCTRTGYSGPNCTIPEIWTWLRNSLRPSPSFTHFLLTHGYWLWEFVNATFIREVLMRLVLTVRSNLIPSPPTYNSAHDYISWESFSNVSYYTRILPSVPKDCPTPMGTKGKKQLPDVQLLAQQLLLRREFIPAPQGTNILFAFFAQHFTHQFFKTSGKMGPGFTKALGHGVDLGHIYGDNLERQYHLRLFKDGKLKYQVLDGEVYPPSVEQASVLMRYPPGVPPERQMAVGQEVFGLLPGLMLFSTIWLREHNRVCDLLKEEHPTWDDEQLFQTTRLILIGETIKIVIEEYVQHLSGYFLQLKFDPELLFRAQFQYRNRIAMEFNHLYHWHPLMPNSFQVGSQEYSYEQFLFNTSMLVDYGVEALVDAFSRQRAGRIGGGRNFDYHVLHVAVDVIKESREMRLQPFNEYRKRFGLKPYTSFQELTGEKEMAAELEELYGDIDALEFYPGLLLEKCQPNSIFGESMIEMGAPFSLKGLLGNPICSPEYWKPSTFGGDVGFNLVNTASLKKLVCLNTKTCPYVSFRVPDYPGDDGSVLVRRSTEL", "test": "In situ competitive SILAC profiling with A-DA probe in Neuro2a cells", "assay_type": "cell-based", "settings": "Neuro2a cells, A-DA 5 μM, drug 25 μM"}, "[2]": {"tested_on": "membrane and soluble proteins of HEK293T cells", "test": "Gel-based profiling of lipid probe labeling in HEK293T cells", "assay_type": "cell-based, human", "settings": "probe 20 μM, 30 min, UV", "description": "For gel-based analysis, after sonicating the membrane pellets in cold DPBS, protein concentrations of each fraction were determined using the BCA protein assay (Bio-Rad) and a microplate reader (Tecan, Infinite F500).\n(§1) Proteomes were diluted to 1.0 mg/mL (total protein concentration) and 50 μL of each proteome was transferred to separate wells in a 96-well plate.\nIn some instances, within the arachidonoyl subset of probes, fatty acid- and fatty acid amide-based probes (AA-DA and AEA-DA, respectively) were synthesized and their potential were evaluated to bind and covalently modify (under UV-light exposure) proteins in human cells by gel-based profiling. For example, HEK293T cells were treated with probe (AA-DA or AEA-DA; 20 μM, 30 min), irradiated with UV light (10 min, 4° C.), lysed and the cell proteomes fractionated into membrane and soluble components by centrifugation prior to conjugation to a fluorescent reporter tag (Rh—N3) using CuAAC (FIG. 4A). […] In some instances, this was a consequence of rapid sequestration of this probe into membranes through its metabolic incorporation into phospho/neutral-lipids or into lipidated proteins. […] In some instances, the labeling profile of the AEA-DA probe reflected a limited capacity of the cell to metabolize this amidated probe, which undergoes enzyme-mediated hydrolysis prior to incorporation into other lipids or proteins."}, "[3]": {"tested_on": "AEA-DA lipid probe targets in Neuro2a cells", "settings": "Neuro2a cells, AEA-DA 5 μM"}, "[4]": {"target": "T2, recombinant TMEM97 (Homo sapiens, UniProt Q5BJF2)", "T2 construct": "Full-length cDNAs encoding for the each protein of interest were subcloned into pcDNA3.1 myc-His A; expressed in transfected cells; host or cells: HEK293T", "T2 sequence (Q5BJF2 whole entry, species assumed)": "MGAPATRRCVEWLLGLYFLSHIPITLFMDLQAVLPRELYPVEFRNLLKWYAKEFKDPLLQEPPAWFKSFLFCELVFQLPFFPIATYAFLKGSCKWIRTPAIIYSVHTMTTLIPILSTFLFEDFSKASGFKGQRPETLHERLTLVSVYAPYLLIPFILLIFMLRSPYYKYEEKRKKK", "test": "In situ gel-based competition of arachidonoyl probe labeling of recombinant TMEM97 in HEK293T cells", "assay_type": "cell-based", "settings": "TMEM97-transfected HEK293T cells, probe 5 μM, competitor 25 μM", "description": "as §1\nFull-length cDNAs encoding for the each protein of interest were subcloned into pcDNA3.1 myc-His A (Invitrogen) or used directly for transfections if available in a eukaryotic expression vector. HEK293T cells were grown to ˜70% confluence under standard growth conditions before adding the appropriate cDNA [control cells (“mock”) received an equal amount of empty pcDNA3.1 myc-His A vector] and FuGENE 6 or X-tremeGENE HP (Roche) transfection reagent according to the manufacturer's instructions. Cells were incubated for 36-48 hours before labeling in situ or harvesting for in vitro experiments."}, "[5]": {"tested_on": "sterol-binding proteins in HeLa cells", "test": "Gel-based profiling of sterol-binding proteins in HeLa cells", "assay_type": "cell-based, human", "settings": "1-20 μM probe", "description": "HeLa cells were grown at 37° C. under a humidified 5% CO2 atmosphere, in a culture medium consisting of high-glucose DMEM (HyClone) supplemented with 10% fetal bovine serum (FBS; Gemini) and penicillin, streptomycin, and glutamine (Cellgro; PSQ). For SILAC experiments, the culture medium was replaced with SILAC DMEM (Thermo) supplemented instead with 10% dialyzed FBS, PSQ, and 100 μg/ml [^13C6, ^15N4] L-arginine-HCl and [^13C6, ^15N2] L-lysine-HCl (Sigma-Aldrich). Cells were passaged at least six times in isotopically labeled media before being utilized for analysis by LC-MS/MS.\nTo facilitate delivery to cells, all sterols and steroids, including the sterol probes, were complexed in aqueous solution to mβCD (Sigma-Aldrich) for at least twelve hours before dilution in culture medium for labeling. The desired amount of sterol or steroid was added to a saturated aqueous mβCD (38 mM) solution to generate a concentrated stock, and agitated at room temperature overnight; solutions were filtered prior to use the following day. […]\nFrozen cell pellets were thawed on ice and lysed in PBS by sonication. Protein concentrations of cell lysates were determined using the BCA protein assay on a microplate reader. […] After 1 hour, samples were mixed with SDS sample loading buffer and loaded without boiling on a 10% SDS-PAGE gel, separated, and imaged using a Hitachi FMBIO-II flatbed fluorescence scanner."}, "[6]": {"tested_on": "sterol-binding proteins in HeLa cells", "test": "SILAC MS-based profiling of sterol-binding proteins in HeLa cells", "assay_type": "cell-based, human", "settings": "probe-enriched proteins", "quoted_text": "To facilitate delivery to cells, all sterols and steroids, including the sterol probes, were complexed in aqueous solution to mβCD (Sigma-Aldrich) for at least twelve hours before dilution in culture medium for labeling. The desired amount of sterol or steroid was added to a saturated aqueous mβCD (38 mM) solution to generate a concentrated stock, and agitated at room temperature overnight; solutions were filtered prior to use the following day. Aqueous stock solutions of the trans probe were prepared at 2 mM; the cis and epi probes were prepared at 1.2 mM; cholesterol and other sterols for competition were prepared at 4 mM; steroids were prepared at 5 mM. […]"}}, "data": [{"smiles": "CC(C(=O)O)c1ccc(-c2ccccc2)c(F)c1", "note": "(racemic) [(±)-flurbiprofen]", "values": [{"measurement": "competition of A-DA labeling of PTGS1", "setting": "[1]", "result": "competitively blocked"}]}, {"smiles": "C#CCCCC1(CC/C=C\\C/C=C\\C/C=C\\CCCC(=O)O)N=N1", "note": "[AA-DA, (5Z,8Z,11Z)-14-(3-(pent-4-yn-1-yl)-3H-diazirin-3-yl)tetradeca-5,8,11-trienoic acid]", "values": [{"measurement": "protein labeling profile (membrane vs soluble)", "setting": "[2]", "result": "almost exclusive labeling of membrane proteins"}]}, {"smiles": "COc1cc2c(cc1OC)CN(CCc1ccc(NC(=O)c3cccc4c(=O)c5cccc(OC)c5[nH]c34)cc1)CC2", "note": "[elacridar, reference compound]", "values": [{"measurement": "concentration blocking lipid probe labeling of FECH, ABCB1B and TMEM97 (as low as)", "setting": "[3]", "result": 0.5, "unit": "µM"}, {"measurement": "competition of arachidonoyl probe labeling of recombinant TMEM97", "setting": "[4]", "result": "competition was observed"}]}, {"smiles": "C#CCCCCOC(=O)CC[C@@H](C)[C@H]1CCC2C3CC4(N=N4)[C@H]4C[C@@H](O)CC[C@]4(C)C3CC[C@@]21C", "note": "(stereo partly drawn) [trans-sterol probe, (4R)-hex-5-yn-1-yl 4-((3S,5S,10R,13R,17R)-3-hydroxy-10,13-dimethyl-1,2,3,4,5,7,8,9,10,11,12,13,14,15,16,17-hexadecahydrospiro[cyclopenta[a]phenanthrene-6,3′-diazirin]-17-yl)pentanoate]", "values": [{"measurement": "overall protein-labeling profile by gel", "setting": "[5]", "result": "stronger overall protein-labeling profiles"}, {"measurement": "mean labeling intensity ratio trans/epi", "setting": "[6]; standard deviation 1.2", "result": 2.1}, {"measurement": "mean labeling intensity ratio trans/cis", "setting": "[6]; standard deviation=0.57", "result": 0.9}]}]}
